# Like-named read-outs stand apart in the source and are kept apart here.
# Columns and labels:
# Format in all cases: cell-based, Staphylococcus aureus
# Conditions in all cases: for ICF / IC50 ± SE / MIC ± SE: resazurin
# MRSA Xen 30 = tested on: MRSA Xen 30
# Excerpt: (§1) Based on the broth microdilution assay results for W2-FL10 and melittin, the S. aureus ATCC 25923 (reference), S. aureus RN4220 (laboratory; MSSA), or methicillin-resistant S. aureus Xen 30 (clinical; MRSA) strains were selected for further antibacterial studies. Resazurin (also referred to as Alamar Blue) is a blue, non-fluorescent dye that can be reduced to resorufin (a pink, fluorescent compound) by metabolically active cells. The dye can thus be used as a quantitative indicator of cell viability ([52]). Therefore, a broth microdilution assay coupled with resazurin [prepared to a stock solution of 0.3 mg/mL in PBS; ([53])] was used to determine the influence of cations (Mg^2+ and Ca^2+), commercial LTA of S. aureus and DOPG on the potency of W2-FL10 against S. aureus ATCC 25923, S. aureus RN4220 and MRSA Xen 30 as described by Wu et al. ([54]).
# (§2) For investigating the influence of cations on the antibacterial potency of W2-FL10, a clear 96-well plate was prepared with W2-FL10 and air dried as described in the “Antibacterial activity: broth microdilution assay” section. The S. aureus strains were inoculated into MHB or CA-MHB, grown to mid-log phase (OD600 of 0.5–0.6), and diluted to OD600 of 0.4. A 1:20 dilution of the test strain (final concentration of ∼10^5 CFU/mL) was prepared and 100 µL was dispensed into each well (final concentration of W2-FL10 at 1.56 to 25 µg/mL). Sterile broth (i.e., MHB or CA-MHB) and the OD-adjusted inoculum were included in the assay as a positive control, while sterile broth (i.e., MHB or CA-MHB) was included as a sterility control. The plate was incubated for 24 h at 37°C.
# (§3) Similarly, the possible interaction and binding of LTA of S. aureus and DOPG (both at 1 mg/mL in 10% EtOH) with the lipopeptide W2-FL10 was investigated ([54]). Briefly, a clear 96-well plate was prepared with W2-FL10 and air dried as described in the “Antibacterial activity: broth microdilution assay” section. Thereafter, 10 µL of LTA from S. aureus or DOPG was dispensed into the respective wells. The S. aureus strains were grown to mid-log phase in MHB (OD600 of 0.5–0.6) and diluted to OD600 of 0.4. A 1:20 dilution of test strain (final concentration of ∼10^5 CFU/mL) was prepared, 100 µL was dispensed into each well (final concentration of W2-FL10 at 3.13 to 100 µg/mL), and the plate was incubated for 24 h at 37°C. Sterile broth, the OD-adjusted inoculum, and the respective LTA or DOPG were included in the assay as a positive control, while sterile broth and LTA or DOPG were included as a sterility control.
# (§4) After incubation of both plates, 10 µL of resazurin (0.3 mg/mL) was added to each well and the plate was incubated at 37°C for 1 h. Fluorometric readings of the experimental plates were conducted using a Tecan Spark 10M Multimode Microplate Reader at 560 nm excitation wavelength and 590 nm emission wavelength. For all resazurin assays, the percentage inhibition was calculated as described by van Rensburg et al. ([53]). All experiments were performed in triplicate, with independent biological duplicates. […] Dose-response curves (nonlinear regression using equation 1) were processed as described by Rautenbach et al. ([17]) (also see description above), and IC50 values were deduced from the best-fit sigmoidal curves (R^2 ≥ 0.98). Statistical analyses were done by comparing W2-FL10 IC50, in the presence of Ca^2+ and Mg^2+, in the presence of DOPG, and in the presence of LTA toward the control condition each of the three S. aureus strains using one-way analysis of variance (ANOVA) with Bonferroni’s post hoc test.
# S. aureus ATCC 25923 = tested on: S. aureus ATCC 25923
# Excerpt: as §1, §2, §3, §4
# S. aureus RN4220 = tested on: S. aureus RN4220
# Excerpt: as §1, §2, §3, §4
# [1] = LTA 100 µg/mL vs control, P < 0.001
# [2] = LTA of S. aureus 100 µg/mL, n = 3
# [3] = Control (MHB), 24 h 37°C, n = 4
smiles,measurement,setting,value
"CCCCCCCC1CC(=O)N[C@H](CC(C)C)C(=O)N[C@@H](CO)C(=O)N[C@@H]([C@@H](C)O)C(=O)N[C@H](Cc2ccccc2)C(=O)N[C@@H](CC(C)C)C(=O)O1 (stereo partly drawn) [W2-FL10, serrawettin W2-FL10]",increase in the IC50 in the presence of LTA,MRSA Xen 30; [1],twofold
same,ICF,MRSA Xen 30; Ca2+ and Mg2+ (CA-MHB),1.7
same,IC50 ± SE,"MRSA Xen 30; Ca2+ and Mg2+ (CA-MHB), n = 4",12.2±0.2 (5) 9.5±1.5 (4) 40.6±2.0 (4) 24.6±0.1 (4) µg/mL
same,MIC ± SE,"MRSA Xen 30; Ca2+ and Mg2+ (CA-MHB), n = 4",12.5 ± 0.0 µg/mL
same,ICF,MRSA Xen 30; Control (MHB),3.4
same,MIC ± SE,"MRSA Xen 30; Control (MHB), 24 h 37°C, n = 5",22.5 ± 2.5 µg/mL
same,IC50 ± SE,"MRSA Xen 30; Control (MHB), n = 5",12.2 µg/mL
same,ICF,MRSA Xen 30; DOPG 100 µg/mL,2.4
same,IC50 ± SE,"MRSA Xen 30; DOPG 100 µg/mL, n = 4",40.6 µg/mL
same,MIC ± SE,"MRSA Xen 30; DOPG 100 µg/mL, n = 4",62.5 ± 12.5 µg/mL
same,ICF,MRSA Xen 30; LTA 100 µg/mL,4.1
same,IC50 ± SE,"MRSA Xen 30; LTA 100 µg/mL, n = 4",24.6 µg/mL
same,MIC ± SE,MRSA Xen 30; [2],50.0 ± 17.7 µg/mL
same,increase in the IC50 in the presence of DOPG,"S. aureus ATCC 25923; DOPG 100 µg/mL vs control, P < 0.001",twofold
same,ICF,S. aureus ATCC 25923; Ca2+ and Mg2+ (CA-MHB),2.2
same,IC50 ± SE,"S. aureus ATCC 25923; Ca2+ and Mg2+ (CA-MHB), n = 4",8.4 µg/mL
same,MIC ± SE,"S. aureus ATCC 25923; Ca2+ and Mg2+ (CA-MHB), n = 4",12.5 ± 0.0 µg/mL
same,ICF,S. aureus ATCC 25923; Control (MHB),4.3
same,MIC ± SE,S. aureus ATCC 25923; [3],21.9 ± 3.1 µg/mL
same,IC50 ± SE,"S. aureus ATCC 25923; Control (MHB), n = 4",10.6 µg/mL
same,ICF,S. aureus ATCC 25923; DOPG 100 µg/mL,6.3
same,IC50 ± SE,"S. aureus ATCC 25923; DOPG 100 µg/mL, n = 4",22.5 µg/mL
same,MIC ± SE,"S. aureus ATCC 25923; DOPG 100 µg/mL, n = 4",56.3 ± 15.7 µg/mL
same,ICF,S. aureus ATCC 25923; LTA 100 µg/mL,6.3
same,IC50 ± SE,"S. aureus ATCC 25923; LTA 100 µg/mL, n = 4",16.6 µg/mL
same,MIC ± SE,S. aureus ATCC 25923; [2],41.7 ± 8.3 µg/mL
same,increase in the IC50 in the presence of LTA,S. aureus RN4220; [1],twofold
same,ICF,S. aureus RN4220; Ca2+ and Mg2+ (CA-MHB),6.3
same,IC50 ± SE,"S. aureus RN4220; Ca2+ and Mg2+ (CA-MHB), n = 3",10 µg/mL
same,MIC ± SE,"S. aureus RN4220; Ca2+ and Mg2+ (CA-MHB), n = 3",25.0 ± 0.0 µg/mL
same,ICF,S. aureus RN4220; Control (MHB),3.6
same,MIC ± SE,S. aureus RN4220; [3],25.0 ± 0.0 µg/mL
same,IC50 ± SE,"S. aureus RN4220; Control (MHB), n = 4",13.2 µg/mL
same,ICF,S. aureus RN4220; DOPG 100 µg/mL,2.2
same,IC50 ± SE,"S. aureus RN4220; DOPG 100 µg/mL, n = 3",44.6 µg/mL
same,MIC ± SE,"S. aureus RN4220; DOPG 100 µg/mL, n = 3",66.7 ± 16.7 µg/mL
same,ICF,S. aureus RN4220; LTA 100 µg/mL,3.5
same,IC50 ± SE,"S. aureus RN4220; LTA 100 µg/mL, n = 3",26.8 µg/mL
same,MIC ± SE,S. aureus RN4220; [2],50.0 ± 0.0 µg/mL
